Consider 4 molecules from ChEMBL document CHEMBL5726283, “Cycloalkyl nitrile pyrazolo pyridones as Janus kinase inhibitors” (2017).

The target in assay [1] is Tyrosine-protein kinase JAK1 (Homo sapiens, UniProt P23458). The assay can be described thus: Biochemical HTRF Assay Protocol: The ability of compounds to inhibit the activity of JAK1, JAK2, JAK3, and Tyk2 was measured using a recombinant purified GST-tagged catalytic domain for each enzyme (Invitrogen JAK1 #M4290, JAK2 #M4290, JAK3 #M4290, Tyk2 #M4290) in an HTRF format biochemical assay. The reactions employed a common peptide substrate, LCB-[…]-NH2 (in-house). The basic assay protocol is as follows: First, 250 nL of diluted compounds in DMSO were dispensed into the wells of a dry 384-well Black plate (Greiner #781076) using a Labcyte Echo 555 acoustic dispenser. Subsequent reagent additions employed an Agilent Bravo. Next, 18 μL of 1.11× enzyme and 1.11× substrate in 1× assay buffer (Invitrogen kinase buffer #PV3189, 2 mM DTT, 0.05% BSA) were added to the wells and shaken and then preincubated for 30 minutes at room temperature to allow compound binding to equilibrate. After equilibration, 2 μL of 10×ATP in 1× assay buffer was added to initiate the kinase reaction and the plates were shaken and then incubated at room temperature for 120 minutes. At the end of the incubation, 20 μL of 2× stop buffer (streptavidin-Dylight 650 (Thermo #84547B/100 mL), Eu-tagged pY20 antibody (Perkin Elmer #AD0067), EDTA, HEPES, and Triton) was added to quench the reaction. Plates were shaken and centrifuged and then incubated 60 minutes at room temperature and then read on a Perkin Elmer Envision (λex=337 nm, λem=665 and 615 nm, TRF delay time=20 μs). HTRF signal=10,000*665 nm reading/615 nm reading. After normalization to untreated controls, the percent inhibition of the HTRF signal at each compound concentration was calculated.

The target in assay [2] is Tyrosine-protein kinase JAK2 (Homo sapiens, UniProt O60674). Kind of assay: Biochemical HTRF Assay Protocol: The ability of compounds to inhibit the activity of JAK1, JAK2, JAK3, and Tyk2 was measured using a recombinant purified GST-tagged catalytic domain for each enzyme (Invitrogen JAK1 #M4290, JAK2 #M4290, JAK3 #M4290, Tyk2 #M4290) in an HTRF format biochemical assay. […] Subsequent reagent additions employed an Agilent Bravo. […] After equilibration, 2 μL of 10×ATP in 1× assay buffer was added to initiate the kinase reaction and the plates were shaken and then incubated at room temperature for 120 minutes. […] After normalization to untreated controls, the percent inhibition of the HTRF signal at each compound concentration was calculated.
Tyrosine-protein kinase JAK2, sequence (O60674 whole entry, the tested form may be a part): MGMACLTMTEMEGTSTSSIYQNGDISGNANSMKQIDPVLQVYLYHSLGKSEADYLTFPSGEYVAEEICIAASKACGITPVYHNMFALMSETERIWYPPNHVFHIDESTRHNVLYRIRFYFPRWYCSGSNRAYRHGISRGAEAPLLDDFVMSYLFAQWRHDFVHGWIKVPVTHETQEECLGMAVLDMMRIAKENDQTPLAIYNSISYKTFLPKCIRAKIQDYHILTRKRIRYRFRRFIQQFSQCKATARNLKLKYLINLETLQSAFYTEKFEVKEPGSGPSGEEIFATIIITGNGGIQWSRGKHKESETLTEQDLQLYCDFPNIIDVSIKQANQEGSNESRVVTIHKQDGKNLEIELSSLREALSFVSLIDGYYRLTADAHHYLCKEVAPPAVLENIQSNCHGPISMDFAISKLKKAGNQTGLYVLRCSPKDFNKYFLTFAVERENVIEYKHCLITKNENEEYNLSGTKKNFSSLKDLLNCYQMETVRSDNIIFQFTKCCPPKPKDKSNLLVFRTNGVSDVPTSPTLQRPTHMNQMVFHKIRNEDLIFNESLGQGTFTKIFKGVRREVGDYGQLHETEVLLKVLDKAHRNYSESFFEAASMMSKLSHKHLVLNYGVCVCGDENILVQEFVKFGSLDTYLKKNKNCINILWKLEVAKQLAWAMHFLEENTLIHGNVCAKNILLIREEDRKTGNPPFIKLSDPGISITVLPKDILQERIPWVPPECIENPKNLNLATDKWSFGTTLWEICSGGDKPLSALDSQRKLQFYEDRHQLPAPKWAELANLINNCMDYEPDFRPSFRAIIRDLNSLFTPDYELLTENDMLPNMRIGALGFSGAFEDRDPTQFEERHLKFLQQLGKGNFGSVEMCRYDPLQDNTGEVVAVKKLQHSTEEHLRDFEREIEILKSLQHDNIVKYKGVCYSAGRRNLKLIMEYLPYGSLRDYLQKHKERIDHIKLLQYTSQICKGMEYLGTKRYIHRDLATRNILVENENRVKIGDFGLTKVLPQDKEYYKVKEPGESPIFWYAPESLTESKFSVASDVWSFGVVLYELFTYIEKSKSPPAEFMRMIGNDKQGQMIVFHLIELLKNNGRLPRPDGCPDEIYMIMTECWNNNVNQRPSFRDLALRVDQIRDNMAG

Tyrosine-protein kinase JAK1, sequence (P23458 whole entry, the tested form may be a part): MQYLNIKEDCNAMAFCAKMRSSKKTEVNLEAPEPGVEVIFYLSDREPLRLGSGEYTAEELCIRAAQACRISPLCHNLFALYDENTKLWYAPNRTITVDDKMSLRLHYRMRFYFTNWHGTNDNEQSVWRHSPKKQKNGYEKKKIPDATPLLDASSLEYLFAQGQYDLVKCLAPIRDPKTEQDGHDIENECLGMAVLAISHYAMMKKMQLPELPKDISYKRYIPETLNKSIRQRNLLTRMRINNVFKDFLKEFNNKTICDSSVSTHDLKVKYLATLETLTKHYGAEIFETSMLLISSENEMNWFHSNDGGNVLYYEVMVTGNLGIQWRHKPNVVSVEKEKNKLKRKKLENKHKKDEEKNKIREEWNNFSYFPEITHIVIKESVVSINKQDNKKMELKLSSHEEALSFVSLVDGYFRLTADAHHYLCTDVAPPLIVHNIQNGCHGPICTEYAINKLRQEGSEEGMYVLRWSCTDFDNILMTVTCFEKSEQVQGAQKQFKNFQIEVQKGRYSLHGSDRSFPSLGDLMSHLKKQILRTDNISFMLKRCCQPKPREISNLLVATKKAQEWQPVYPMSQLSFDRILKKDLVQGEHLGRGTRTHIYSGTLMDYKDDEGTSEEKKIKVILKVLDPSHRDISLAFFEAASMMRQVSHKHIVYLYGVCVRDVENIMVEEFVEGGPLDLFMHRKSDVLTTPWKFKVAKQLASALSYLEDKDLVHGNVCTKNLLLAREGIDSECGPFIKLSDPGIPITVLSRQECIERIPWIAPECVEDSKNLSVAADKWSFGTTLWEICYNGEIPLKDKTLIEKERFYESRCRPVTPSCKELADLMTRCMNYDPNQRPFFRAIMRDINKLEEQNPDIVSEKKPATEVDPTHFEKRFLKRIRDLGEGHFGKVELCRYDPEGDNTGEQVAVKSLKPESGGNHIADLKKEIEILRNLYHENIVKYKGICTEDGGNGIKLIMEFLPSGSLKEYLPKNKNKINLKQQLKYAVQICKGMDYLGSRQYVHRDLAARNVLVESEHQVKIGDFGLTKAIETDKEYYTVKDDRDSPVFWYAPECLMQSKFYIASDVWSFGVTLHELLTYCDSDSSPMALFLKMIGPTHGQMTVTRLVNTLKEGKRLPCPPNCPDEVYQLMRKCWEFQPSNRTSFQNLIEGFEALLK

As for `CN(C)S(=O)(=O)c1ccc(Nc2nn([C@H]3CCC[C@@H]3C#N)c3cc[nH]c(=O)c23)cc1`, the half-inhibitory concentration (IC50) in assay [1] was 110 pM; in assay [2] it was 300 pM.

With `Cc1cc(Nc2nn([C@H]3CCCC[C@@H]3C#N)c3cc[nH]c(=O)c23)ccc1C(=O)N1CCC(F)(F)CC1`, the figures for the half-maximal inhibitory concentration (IC50) in assay [1] and in assay [2] were 320 pM and 370 pM, respectively.

As for `N#C[C@H]1C[C@H](O)CC[C@@H]1n1nc(Nc2ccc(C(F)(F)F)cc2)c2c(=O)[nH]ccc21`, in assay [1], the IC50 is 480 pM.

Take `CS(=O)(=O)c1ccc(Nc2nn([C@@H]3CCC[C@H]3C#N)c3cc[nH]c(=O)c23)cc1`: the 50% inhibitory concentration (IC50) in assay [1] is 4700 pM.
